Laboratory results from a melting point compilation (Tetko et al.; mined from patent text by program, amines drawn as free bases though some values may be those of a salt).

melting point	Compound
119 to 121 °C	CC(=O)NCc1ccc2c(c1)N(C1CCN(CCCCc3ccc(F)cc3)CC1)CC2
240 to 242 °C	CC(=O)S[C@H]1C[C@@H](C(=O)Nc2cccc(C(=O)NS(C)(=O)=O)c2)N(C(=O)OCc2ccc([N+](=O)[O-])cc2)C1
120 °C	CCCNC(=O)N1Cc2cccn2-c2ccsc2C1=O
154 to 155 °C	COc1cccc([C@H]2O[C@H](CC(=O)Nc3ccsc3C(=O)O)C(=O)N(CC(C)(C)CO)c3ccc(Cl)cc32)c1OC
196 to 200 °C	Cc1nc2cc3c(cc2c(=O)[nH]1)C(N(C)c1ccc(C(=O)NC(C(=O)O)c2ccc(CC(=O)O)cc2)c(F)c1)CC3 (mixture of isomers)
194 to 197 °C	COc1cccc(OC)c1-c1nc2c(N[C@H]3[C@@H](C(N)=O)[C@@H]4C=C[C@H]3C4)c(Br)cnc2[nH]1
126 to 127 °C	CCOc1nn(Cc2ccc(OCc3cn(-c4ccccn4)nc3C)cc2)cc1CCC(=O)O
45 to 48 °C	CC(C)CCCC(O)(Cn1cncn1)C(C)(C)C (configuration not stated)
140 to 142 °C	Cn1c(=O)c(-c2c(Cl)cccc2Cl)cc2cnc(NCCCN3CCOCC3)nc21
> 300 °C	CNC1(C)CN(c2nc3c(cc2F)c(=O)c(C(=O)O)cn3C(C)(C)C)C1
107 to 108 °C	COC(=O)c1ccc(NCc2ccc(F)cc2)cn1
119 °C	CC(CC(C)C1CCC2C3C(=O)CC4CC(=O)CCC4(C)C3CCC12C)C(=O)O (configuration not stated)
206 to 209 °C	Oc1cnc2[nH]ccc2c1
207 to 209 °C	Cc1cc(C#N)ccc1N1CCCn2c1nc1c(Cl)ccc(C(OCC(F)(F)F)C3CC3)c12 (configuration not stated)
199 °C	Cc1cc(C)cc(NCc2ccc3nc(NCCCN4CCOCC4)n(Cc4nc(C)ccc4O)c3c2)c1
162 to 164 °C	CCCCNC(=O)NS(=O)(=O)c1cccc2c1S(=O)(=O)N(C)C2
123 to 125 °C	CCCCCCCCC=CCCCCCCCC(=O)CCCNC(=O)CCNC(C)=O
122 to 125 °C	O=C1CCC(N2C(=O)c3cccc(NC(=O)CCCCCNC(=O)OCc4ccccc4)c3C2=O)C(=O)N1 (configuration not stated)
74 to 75 °C	CCNc1cc(C)nn1-c1c(Cl)cc(C(F)(F)F)cc1Cl
122 °C	O=C1c2cccc3cc4ccccc4c(c23)C(=O)N1CCNCCCCCNCCN1C(=O)c2cccc3cc4ccccc4c(c23)C1=O
163 to 165 °C	COc1ccc(C(O)(c2ccc(OC)cc2)C(O)(c2ccccc2)c2ccccc2)cc1
135 to 136 °C	NC(=NCC(F)(F)F)Nc1ccnc(CCCCO)n1
187 to 189 °C	CC(=O)NCC(=O)N(C)c1ccc(Cl)c(COc2cccn3c(Br)c(C)nc23)c1Cl
101 to 105 °C	CC(C)(C)CC(C)(C)c1cc(N=Nc2ccc(C(F)(F)F)cc2[N+](=O)[O-])c(O)c(C(C)(C)c2ccccc2)c1

melting point	Compound
106 to 108 °C	Cc1ccccc1OCCC1CCN(c2cc(Cl)nnc2Cl)CC1
233 to 235 °C	COc1cc(OS(C)(=O)=O)ccc1-c1nc2cc3c(cc2[nH]1)NC(=O)C3(C)C
120 °C	CCCC(NS(=O)(=O)c1ccc(Cl)cc1)C(=O)NN (configuration not stated)
131 to 134 °C	O=C(Nc1cccc(-n2ccnc2)c1)c1csc(-c2ccccc2)n1
215 to 217 °C	N#Cc1ccc2c(c1)C(C(=O)O)c1ccccc1CO2 (configuration not stated)
120 °C	O=S(=O)(c1ccc(Cl)c(CBr)c1Cl)N1CC[C@H](O)C1
142 to 144 °C	Cc1cccnc1C(=O)c1[nH]c2cc(Cl)ccc2c1NC(=O)CC(C)C
94 to 98 °C	O=C1c2ccccc2CN1CCC#Cc1ccccn1
> 225 °C	CC(C)(C)CC(SC1CCCCC1)c1c(O)cc(-c2ccccc2)oc1=O (configuration not stated)
168 to 170 °C	Cc1ccc(Cl)cc1N1C(=O)CN(c2ccccc2)C1=S
245 to 247 °C	CC(=O)N(C(C)=O)c1cc2c(Nc3ccc(Sc4nccn4C)c(Cl)c3)c(C#N)cnc2cc1N1CCC(N2CCCC2)CC1
201 °C	CCN1CCc2ccc(Nc3ncc(Cl)c(Nc4ccccc4C(=O)NC)n3)cc2CC1
121 to 124 °C	COC(=O)C1CCc2cc(OCc3ccccc3)c(OCc3ccccc3)cc2C1O (configuration not stated)
153 to 157 °C	NC(=S)c1c(F)cccc1Cl
56 to 59 °C	CCOC(=O)COc1ccc(C=O)cc1OC
81 to 82 °C	CCOC(=O)Cc1ccc(NC(=O)C(COS(C)(=O)=O)NS(=O)(=O)c2ccc(F)cc2)cc1 (racemic)
> 260 °C	O=C(O)Cc1cc(C(=O)c2cccc(C(=O)O)c2)ccc1O
116 to 118 °C	COc1ccc(/C=C/C(=O)Nc2ccccc2C(=O)OCC(=O)OC(C)(C)C)cc1OC
128 to 131 °C	CN(C)c1ccc(NC(=O)N(C[C@H]2CC[C@H](CN(C(=O)Nc3ccc(N(C)C)cc3)C3CCCCC3)CC2)C2CCCCC2)cc1
187 to 188 °C	CC1(C)COC(c2cc3c(O)cccc3o2)=N1
115 °C	CCOc1ccc2c(c1)n(C1CCCCC1)c(=O)n2Cc1ccc(-n2cccc2)cc1OC
173 to 175 °C	COc1cc(OC)nc(NC(=O)NS(=O)(=O)Oc2ccccc2-c2csnn2)n1
300 to 301 °C	NC(=O)c1cccc2c1[nH]c1c3cc(Br)ccc3oc21
204 to 206 °C	OCCn1cc(-c2ccc3nnn(Cc4ccc(F)cc4)c3n2)cn1

melting point	Compound
207 to 209 °C	CC(=O)c1cc(-c2ccc(S(C)(=O)=O)cc2)n(-c2ccc(F)cc2)n1
63 to 65 °C	COc1cc(OC)nc(Oc2cccc(O)c2C(=O)OCc2ccccc2)n1
166 to 169 °C	Nc1cc(I)ccc1Nc1cccc(-c2cncnc2)c1
190 to 191 °C	NC(=O)COc1ccccc1[N+](=O)[O-]
123 to 125 °C	COC=C(C(=O)OC)N(C)c1nccc(-c2ccccc2)n1
150 to 152 °C	CONC(=N)c1nc(C)c(I)c(NCC(F)(F)F)n1
109 to 110 °C	CCC1(CC)OC(c2ccc(S(C)(=O)=O)cc2)=CC1=O
125 to 138 °C	N#CCc1cccc2c(-c3ccccc3)onc12
110 to 113 °C	CCCc1c(O)ccc(C(=O)c2ccccc2O)c1O
122 to 123 °C	COc1ccc(C(=O)N2c3ccccc3SC2C#N)cc1 (configuration not stated)
230 to 232 °C	Cc1cc(C)c(C2CN(c3cc4[nH]cc(C(=O)O)c(=O)c4cc3F)CCN2)o1 (configuration not stated)
185 to 187 °C	NS(=O)(=O)c1ccc(NC(=O)CCl)c(F)c1
100 °C	CN1CCC(OC(c2cccc(N)c2)c2nc3ccccc3[nH]2)CC1 (configuration not stated)
252 to 253 °C	COc1cc(-c2cc(F)cc(C#N)c2)cc2c1NC(=O)OC2(C)C
82 to 84 °C	O=S(=O)(Nc1cc(Cl)c(Oc2nc3ccc(Cl)cc3s2)c(Cl)c1)c1ccc(C(F)(F)F)cc1Cl
144 to 146 °C	CCCc1c2nc(C(=O)OC)cc(C(F)(F)C(F)(F)C(F)(F)F)c2cc2c(=O)cc(C(=O)OCC)oc12
141 to 144 °C	CCCN(CCC)C(N)=C(C#N)C(N)=S
119 to 120 °C	COc1ccc([N+](=O)[O-])cc1CN1CCC(=O)C(C(c2ccccc2)c2ccccc2)C1 (configuration not stated)
120 °C	COc1cc(C(=O)O)c(OC)cc1C
91 to 94 °C	C[C@@H](c1ccc(-c2ccn(C3CC3)c(=O)c2)cc1)N1CC[C@](CC(C)(C)O)(c2ccccc2)OC1=O
104 to 108 °C	O=C(NC1CC1)c1ccc(F)c(F)c1
120 to 123 °C	CS(=O)(=O)c1ccc(-n2nc(CCCO)cc2-c2ccccc2)cc1
249 to 250 °C	N#Cc1cccc(NC(=O)NC2N=C(CN3CCOCC3)c3ccccc3NC2=O)c1 (configuration not stated)
97 to 102 °C	CC(O)CN(CC(C)O)C1CC(C)(C)NC(C)(C)C1 (configuration not stated)

melting point	Compound
97 to 99 °C	CC(O)(CCN1CCOCC1)c1ccc(-c2ccc(Br)cc2)cc1 (configuration not stated)
201 °C	CC1=CC(c2ccccc2C(F)(F)F)C([N+](=O)[O-])=C(C)N1 (configuration not stated)
105 to 108 °C	Nc1ccc(CC(=O)N2CCCC2)cc1N
172 to 177 °C	O=C(O)c1cc(C(c2ccccc2)c2ccccc2)ccn1
45 °C	CCOC(=O)C(=Cc1cccc(OC)c1)C(=O)OCC
148 to 150 °C	COc1ccc2c(c1)c(Cc1cc(=O)n(-c3cccc(Cl)c3)[nH]1)c(C)n2C(=O)c1ccc(Cl)cc1
91 to 94 °C	CCC(C)(O)C#Cc1ccc(C(CC2CCCC2)C(=O)O)cc1 (configuration not stated)
189 to 191 °C	Cc1c(CN2CCN(c3cccc(Cl)c3)C2=O)ncn1C(c1ccccc1)(c1ccccc1)c1ccccc1
166 to 167 °C	COc1cc(CN2CCN(c3ccc(O)cc3)CC2)nc(-c2ccccc2)n1
164 to 167 °C	N#Cc1ccc(-c2c[nH]cn2)cc1
224 to 228 °C	NS(=O)(=O)c1cc(C(=O)O)cc(CCn2cccc2)c1Cl
123 to 126 °C	CCCC[C@H](NC(=O)[C@H](CC(C)C)NC(=O)c1cccc(C)c1)C(=O)CSCc1ccco1
143 °C	CC(C)(Oc1ccc(OCc2noc(-c3ccc(C(C)(C)C)cc3)n2)cc1)C(=O)O
211 °C	COc1ccc(-c2cncc(OC3SCC(O)C(O)C3O)c2)cc1OC (configuration not stated)
108 to 110 °C	COC(=O)C(=Cc1cc(OC)cc(OC)c1)c1ccc(Oc2ccc(C=O)cc2)cc1
229 °C	CC1CC2C3C=C(Cl)C4=CC(=O)CCC4(C)C3C(O)CC2(C)C1C(=O)CO (configuration not stated)
302 to 308 °C	CCCOC(=O)Oc1ccc(-c2nc3c(N)nc(N)nc3nc2N)cc1
169 to 172 °C	CCCCCC(CC(=O)Nc1cc(C(=O)Nc2ccncc2)ccc1C(C)(C)C)c1c(OC)cccc1OC (configuration not stated)
115 to 117 °C	N#Cc1nc(NC2CCCCC2)c2ncn(CCn3ccnc3)c2n1
251 to 253 °C	NS(=O)(=O)c1ccc(-n2nc(C(F)(F)F)cc2-c2nc3cccc(F)c3s2)cc1
158 to 160 °C	CN1CCC(c2c[nH]c3ccc(C4CN=CS4)cc23)CC1 (configuration not stated)

Compound	melting point
COc1cccc(C2(O)CCN(C)CC2)c1	111 to 113 °C
CCCCCCC(CCC(=O)OO)CC(=O)OO (configuration not stated)	51.5 to 52.5 °C
CNC(=C[N+](=O)[O-])NCc1cnc(Cl)s1	181 °C
COc1cccc2[nH]cc(C3CN4CCC3CC4)c12 (configuration not stated)	193 to 195 °C
